Consider 5 compounds from patent US6730659B2, “Antimicrobial peptides and methods of use thereof” (The Board of Regents of the University of Oklahoma, priority 1999, dated 2004).

For data set [1] the following is noted: U.S. Pat. Nos. 5,607,916 and 5,458,874; cited from earlier work.
Another data set deals with S. typhimurium LT2. Put plainly: survival of mice inoculated with live Salmonella typhimurium LT2. The settings on record: for rescue from lethal infection in words: oral and intraperitoneal routes; for survival rate: 100 μg. The data set is classed as in vivo, mice (female, Balb/c). As for the experimental part: Mice (female, Balb/c, 6-8 weeks) were administered a dose of live S. typhimurium LT2 (8×10^8/mouse) via the oral route. Without treatment, this dose of live organisms led to the death of all animals between day 3 and 4 (i.e. LD100 at day 3 or 4). Following challenge with Salmonella, peptide 20-44 (0-150 μg/mouse) was administered via the intravenous; oral, and intraperitoneal routes. […] At day 6 post infection, 100% of animals given a dose of 125 μg of peptide 20-44 intravenously survived. 80% of mice given 50, 100 and 150 μg of peptide survived through to day 5. Data shown in FIG. 10 strongly indicate that peptide 20-44 may also be given via the oral route since 80% survival rates were obtained with 100 μg of peptide. This is evidence that the peptide is not destroyed by the acid environment and enzymes of the stomach and indicates an alternative route of administration to the intravenous route discussed in FIG. 9. The third route of administration of peptide 20-44 was the intraperitoneal route. This is often the method of choice in a veterinary situation.

A further data set relates to S. typhimurium SH9178. The experiment in a line: in vitro bactericidal activity, S. typhimurium SH9178. The data set is classed as cell-based, Salmonella typhimurium. As for the experimental part: (§1) Methods used herein are those previously described in U.S. Pat. Nos. 5,607,916; 5,627,262; and 5,650,392.
(§2) Peptides 20-44, 20-44ser26 and 20-44ser42, were assayed for bactericidal activity using S. typhimurium SH9178 as the test organism. […] Peptide 20-44ser42 killed 97.8% of bacteria at 75 μM, and peptide 20-44ser26 killed 99.6% of bacteria at 75 μM. Importantly, at concentrations of only 12.5 μM, peptide 20-44ser26 killed 70.4% of organisms and peptide 20-44ser42 killed 66.6% of bacteria. We tested these peptides with the smooth, more virulent LT2 strain of S. typhimurium, (FIG. 3). […] Indeed, the two serine analogs, 20-44ser26 and 20-44ser42 were able to kill 73% and 65% of bacteria at 12.5 μM, the lowest concentration of peptide tested. These levels of mortality were very much greater than those obtained using peptide 20-44. Two other organisms, Staphylococcus aureus ATCC strain 25923 and Enterococcus faecalis (a clinical isolate), both of which are gram-positive organisms, were also tested against 20-44ser26 and 20-44ser42.

For data set [2], the system named is LT2 strain of S. typhimurium. The data set is classed as cell-based. The settings on record: 12.5 μM, lowest concentration tested, FIG. 3. As for the experimental part:
as §1, §2

The format of data set [3] is physicochemical. From the text:
In addition to the Increased potency of peptide 20-44ser42 and 20-44ser26, these two peptides have technical advantages over the parent peptide 20-44. The two new analogs are easier to synthesize and purify because the internal disulfide bonding between the two cysteine residues can no longer occur.

A short description of data set [4]: LPS binding in the in vitro limulus amebocyte lysate (LAL) assay. The settings on record: FIGS. 6-7. As for the experimental part:
We tested the ability of the peptide analogs of the present invention to bind LPS in the in vitro limulus amebocyte lysate (LAL) assay and compared them with the parent peptide, 20-44. […] Similarly, peptide 20-44ser42 was also capable of neutralizing the effect of monophosphoryl lipid A at concentrations greater than 500 μg/ml (FIG. 7).

The conditions of data set [5]: cited from earlier work.
The test system of a further data set is Pseudomonas aeruginosa. The settings on record: cited from earlier work.
In another data set the test system is Salmonella typhimurium. The settings on record: cited from earlier work.
For another data set, the system named is Staphylococcus aureus. The settings on record: cited from earlier work.
In a further data set the test system is Enterococcus faecalis. The settings on record: cited from earlier work.
The conditions of data set [6]: intravenous infusion 3.0 mg/kg with E. coli LPS 250 μg/kg over 30 min; cited from earlier work.
The next data set concerns Escherichia coli. The settings on record: cited from earlier work.
[7] abbreviates: 75 μM (200 μg/ml), highest concentration tested, FIG. 2.

Entries after “also recorded” stand apart in the source; their conditions may differ. Read-outs that look alike come from different tables or passages of the source. Positions of bridges follow the written chain, without caps; N, C: chain ends. Residues, ends and D or L forms follow the SMILES beside them. No end group written: not given here. *: point of attachment. Acm = CC(=O)NC*

As for “20-44ser26/42: homologous to peptide 20-44, serines substituted for cysteines at positions 26 and 42 (NQGRHFSGGALIHARFVMTAASSFQ; listed as Homo Sapiens)”, the “antibiotic / antimicrobial activity in words” value in data set [1] is listed as “ineffective antibiotics”.

With “20-44ACM: sequence of 20-44 with both cysteines permanently protected with an ACM (boc-cys-acetamidomethyl) side group; control peptide (NQGRHFC(Acm)GGALIHARFVMTAASC(Acm)FQ; listed as Homo Sapiens) [Peptide 20-44ACM]”, in [1], the “antibiotic / antimicrobial activity in words” value is on record as “ineffective antibiotics”. Besides, in the data set on S. typhimurium LT2 (intravenous), the “rescue from lethal infection in words” value was “succumbed to infection very rapidly; also recorded: no activity”.

Regarding “NQGRHFSGGALIHARFVMTAASCFQ [Peptide 20-44ser26]”, the bacteria killed in the data set with S. typhimurium SH9178 (12.5 μM) is on record as 70.4%; in the data set with S. typhimurium SH9178 (setting [7]), 99.6%; in [2] it was 73%. Also, the “solubility compared with the 20-44 peptide” value in data set [3] is listed as “greater than the 20-44 peptide”.

Take `CC[C@H](C)[C@@H]1NC(=O)[C@H](CC(C)C)NC(=O)[C@H](C)NC(=O)CNC(=O)CNC(=O)[C@@H](NC(=O)[C@H](Cc2ccccc2)NC(=O)[C@H](Cc2c[nH]cn2)NC(=O)[C@H](CCCNC(=N)N)NC(=O)CNC(=O)[C@H](CCC(N)=O)NC(=O)[C@@H](N)CC(N)=O)CSSC[C@@H](C(=O)N[C@@H](Cc2ccccc2)C(=O)N[C@@H](CCC(N)=O)C(=O)O)NC(=O)[C@H](CO)NC(=O)[C@H](C)NC(=O)[C@H](C)NC(=O)[C@H]([C@@H](C)O)NC(=O)[C@H](CCSC)NC(=O)[C@H](C(C)C)NC(=O)[C@H](Cc2ccccc2)NC(=O)[C@H](CCCNC(=N)N)NC(=O)[C@H](C)NC(=O)[C@H](Cc2c[nH]cn2)NC1=O` [Peptide 20-44] (H-NQGRHFCGGALIHARFVMTAASCFQ-OH; disulfide 7-23; N-terminus and C-terminus assumed): the “bactericidal activity in words” value in the data set on S. typhimurium SH9178 (FIG. 2) is listed as “significant antibiotic activity”. In [4], the “binding of LPS / monophosphoryl lipid A in words” value is reported as “bound LPS”. The results for the 7-day survival rate in data set [5] (0.2 mg/kg intravenously after lethal dose of LPS), in [5] (1.0 mg/kg intravenously after lethal dose of LPS) and in data set [5] (5.0 mg/kg intravenously after lethal dose of LPS) were 30%, 50% and 80%, respectively. For the same compound, in data set [5] (5.0 mg/kg, sensitized rats), the “endotoxin-induced increase in circulating TNFα” value is listed as “significantly inhibited”. In addition, the “in vitro bactericidal activity in words” value in the data set with Pseudomonas aeruginosa, in the data set with Salmonella typhimurium and in the data set with Escherichia coli was “strong in vitro bactericidal activity” throughout. Besides, the activity in words entry in the data set on Staphylococcus aureus and in the data set on Enterococcus faecalis was “active” each time. The compound further returned a mice survived in the data set on S. typhimurium LT2 (50, 100 and 150 μg (intravenous by context, FIG. 9), through to day 5) of 80%. For the same compound, the survival rate in the data set with S. typhimurium LT2 (intraperitoneal, day 5 post infection, FIG. 11) is reported as 80%; with S. typhimurium LT2 (intraperitoneal, day 6 post infection, FIG. 11) it was 60%; with S. typhimurium LT2 (oral, FIG. 10) it was 80%. Moreover, the animals survived in the data set with S. typhimurium LT2 (intravenous, 125 μg, day 6 post infection, FIG. 9) was determined as 100%. Moreover, in the data set on S. typhimurium LT2 (intravenous), the “rescue from lethal infection in words” value is “can rescue animals from lethal infection”. Further, the “effect on LPS-induced circulatory shock in words” value in data set [6] was “prevented LPS-induced hyperdynamic and hypodynamic circulatory shock”.

In the case of “NQGRHFCGGALIHARFVMTAASSFQ [Peptide 20-44ser42]”, the figures for the bacteria killed (in the data set on S. typhimurium SH9178 (12.5 μM); in the data set with S. typhimurium SH9178 (setting [7]); in data set [2]) were 66.6%, 97.8% and 65%, respectively. Further, the “solubility compared with the 20-44 peptide” value in data set [3] is listed as “greater than the 20-44 peptide”.
